{"source": "ChEMBL document CHEMBL1201862", "about": "“PubChem BioAssay data set” (2004)", "assay_in_all_cases": "NCI-60 cell line screen, 48 h", "key": {"[1]": {"tested_on": "TK-10"}, "[2]": {"tested_on": "A549"}, "[3]": {"tested_on": "SW-620"}, "[4]": {"tested_on": "HCC 2998"}, "[5]": {"tested_on": "PC-3"}, "[6]": {"tested_on": "OVCAR-8"}, "[7]": {"tested_on": "UACC-257"}, "[8]": {"tested_on": "A498"}, "[9]": {"tested_on": "CAKI-1"}, "[10]": {"tested_on": "SF-295"}, "[11]": {"tested_on": "KM12"}, "[12]": {"tested_on": "MDA-N"}, "[13]": {"tested_on": "HOP-62"}, "[14]": {"tested_on": "OVCAR-3"}, "[15]": {"tested_on": "SNB-75"}, "[16]": {"tested_on": "Hs-578T"}, "[17]": {"tested_on": "HT-29"}, "[18]": {"tested_on": "RXF 393"}, "[19]": {"tested_on": "SF-268"}, "[20]": {"tested_on": "T47D"}, "[21]": {"tested_on": "M14"}, "[22]": {"tested_on": "Malme-3M"}, "[23]": {"tested_on": "IGROV-1"}, "[24]": {"tested_on": "SNB-19"}, "[25]": {"tested_on": "MDA-MB-435"}, "[26]": {"tested_on": "MCF7"}, "[27]": {"tested_on": "K562"}, "[28]": {"tested_on": "ACHN"}, "[29]": {"tested_on": "COLO 205"}, "[30]": {"tested_on": "RPMI-8226"}, "[31]": {"tested_on": "SK-OV-3"}, "[32]": {"tested_on": "U-251"}, "[33]": {"tested_on": "SK-MEL-28"}, "[34]": {"tested_on": "UACC-62"}, "[35]": {"tested_on": "786-0"}, "[36]": {"tested_on": "MOLT-4"}, "[37]": {"tested_on": "UO-31"}, "[38]": {"tested_on": "OVCAR-4"}, "[39]": {"tested_on": "BT-549"}, "[40]": {"tested_on": "EKVX"}, "[41]": {"tested_on": "SR"}, "[42]": {"tested_on": "NCI-H522"}, "[43]": {"tested_on": "NCI/ADR-RES"}, "[44]": {"tested_on": "SK-MEL-2"}, "[45]": {"tested_on": "CCRF-CEM"}, "[46]": {"tested_on": "NCI-H460"}, "[47]": {"tested_on": "DU-145"}, "[48]": {"tested_on": "OVCAR-5"}, "[49]": {"tested_on": "HCT-116"}, "[50]": {"tested_on": "HCT-15"}, "[51]": {"tested_on": "SK-MEL-5"}, "[52]": {"tested_on": "SN12C"}, "[53]": {"tested_on": "LOX IMVI"}, "[54]": {"tested_on": "MDA-MB-231"}, "[55]": {"tested_on": "NCI-H226"}}, "note": "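Cultured in 96-well plates, cells were exposed to test compound for 48 hours across five concentrations. GI50: concentration for 50% inhibition of growth.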 Active and inactive are the calls of the source. No stated cut-off is given here; in the data, active = GI50 up to about 1.1 µM and inactive = higher."}
{"smiles": "CN(C)CCNC1=Nc2ccccc2C(=S)N2CSCC12", "note": "(stereo not given)", "values": [{"measurement": "GI50", "setting": "[1]", "value": "> 100 µM (inactive)"}, {"measurement": "GI50", "setting": "[2]", "value": "> 100 µM (inactive)"}, {"measurement": "GI50", "setting": "[3]", "value": "> 100 µM (inactive)"}, {"measurement": "GI50", "setting": "[4]", "value": "> 100 µM (inactive)"}, {"measurement": "GI50", "setting": "[5]", "value": "> 100 µM (inactive)"}, {"measurement": "GI50", "setting": "[6]", "value": "> 100 µM (inactive)"}, {"measurement": "GI50", "setting": "[7]", "value": "> 100 µM (inactive)"}, {"measurement": "GI50", "setting": "[8]", "value": "> 100 µM (inactive)"}, {"measurement": "GI50", "setting": "[9]", "value": "> 100 µM (inactive)"}, {"measurement": "GI50", "setting": "[10]", "value": "> 100 µM (inactive)"}, {"measurement": "GI50", "setting": "[11]", "value": "> 100 µM (inactive)"}, {"measurement": "GI50", "setting": "[12]", "value": "> 100 µM (inactive)"}, {"measurement": "GI50", "setting": "[13]", "value": "> 100 µM (inactive)"}, {"measurement": "GI50", "setting": "[14]", "value": "> 100 µM (inactive)"}, {"measurement": "GI50", "setting": "[15]", "value": "> 100 µM (inactive)"}, {"measurement": "GI50", "setting": "[16]", "value": "> 100 µM (inactive)"}, {"measurement": "GI50", "setting": "[17]", "value": "> 100 µM (inactive)"}, {"measurement": "GI50", "setting": "[18]", "value": "59.3 µM (inactive)"}, {"measurement": "GI50", "setting": "[19]", "value": "> 100 µM (inactive)"}, {"measurement": "GI50", "setting": "[20]", "value": "> 100 µM (inactive)"}, {"measurement": "GI50", "setting": "[21]", "value": "> 100 µM (inactive)"}, {"measurement": "GI50", "setting": "[22]", "value": "> 100 µM (inactive)"}, {"measurement": "GI50", "setting": "[23]", "value": "> 100 µM (inactive)"}, {"measurement": "GI50", "setting": "[24]", "value": "> 100 µM (inactive)"}, {"measurement": "GI50", "setting": "[25]", "value": "> 100 µM (inactive)"}, {"measurement": "GI50", "setting": "[26]", "value": "> 100 µM (inactive)"}, {"measurement": "GI50", "setting": "[27]", "value": "> 100 µM (inactive)"}, {"measurement": "GI50", "setting": "[28]", "value": "> 100 µM (inactive)"}, {"measurement": "GI50", "setting": "[29]", "value": "> 100 µM (inactive)"}, {"measurement": "GI50", "setting": "[30]", "value": "> 100 µM (inactive)"}, {"measurement": "GI50", "setting": "[31]", "value": "> 100 µM (inactive)"}, {"measurement": "GI50", "setting": "[32]", "value": "> 100 µM (inactive)"}, {"measurement": "GI50", "setting": "[33]", "value": "> 100 µM (inactive)"}, {"measurement": "GI50", "setting": "[34]", "value": "> 100 µM (inactive)"}, {"measurement": "GI50", "setting": "[35]", "value": "> 100 µM (inactive)"}, {"measurement": "GI50", "setting": "[36]", "value": "> 100 µM (inactive)"}, {"measurement": "GI50", "setting": "[37]", "value": "58.2 µM (inactive)"}, {"measurement": "GI50", "setting": "[38]", "value": "> 100 µM (inactive)"}, {"measurement": "GI50", "setting": "[39]", "value": "> 100 µM (inactive)"}, {"measurement": "GI50", "setting": "[40]", "value": "> 100 µM (inactive)"}, {"measurement": "GI50", "setting": "[41]", "value": "> 100 µM (inactive)"}, {"measurement": "GI50", "setting": "[42]", "value": "> 100 µM (inactive)"}, {"measurement": "GI50", "setting": "[43]", "value": "> 100 µM (inactive)"}, {"measurement": "GI50", "setting": "[44]", "value": "> 100 µM (inactive)"}, {"measurement": "GI50", "setting": "[45]", "value": "> 100 µM (inactive)"}, {"measurement": "GI50", "setting": "[46]", "value": "> 100 µM (inactive)"}, {"measurement": "GI50", "setting": "[47]", "value": "74.8 µM (inactive)"}, {"measurement": "GI50", "setting": "[48]", "value": "> 100 µM (inactive)"}, {"measurement": "GI50", "setting": "[49]", "value": "> 100 µM (inactive)"}, {"measurement": "GI50", "setting": "[50]", "value": "> 100", "unit": "µM"}, {"measurement": "GI50", "setting": "[51]", "value": "> 100 µM (inactive)"}, {"measurement": "GI50", "setting": "[52]", "value": "> 100 µM (inactive)"}, {"measurement": "GI50", "setting": "[53]", "value": "> 100 µM (inactive)"}, {"measurement": "GI50", "setting": "[54]", "value": "> 100 µM (inactive)"}, {"measurement": "GI50", "setting": "[55]", "value": "> 100 µM (inactive)"}]}
